Data: patent publication US11319303B2 (WIGEN BIOMEDICINE TECHNOLOGY (SHANGHAI) CO., LTD., priority 2017, dated 2022)
pIC50: −log10 of the molar value. Counter-ions that a name gives are not always drawn. Like-named read-outs stand apart in the source and are kept apart here.

Target: LC3B (Homo sapiens, UniProt Q9GZQ8)
Assay: Fluorescence Polarization (FP) Assay: displacement of FITC-labeled peptide from GST-LC3B
Format: binding
Procedure: The compounds of the present invention for regulating the autophagy-related protein LC3B were tested by Fluorescence Polarization (FP) Assay.
Fluorescence Polarization (FP) Assay Test

[1] = Fluorescence Polarization assay, GST-LC3B 180 nM, FITC-labeled peptide 18 nM, 25° C., read-out: IC50

Row | Structure (SMILES) | pIC50 [1] | pIC50
1 | O=C(CO)C1C(=O)CC(c2ccccc2)CC1=O (centres unmarked) [Compound 112, 2-(hydroacetyl)-5-pheyl-cyclohexane-1,3-dione] | 4.00 to 4.82 | 
2 | O=C1CC2c3ccccc3CCC2C(=O)/C1=C\NCCN1CCN(CCO)CC1 (centres unmarked) [Compound 113, 2-(((2-(4-(2-hydroxyethyl)piperazin-1-yl)ethyl)amino)methylene)-4a,9,10,10a-tetrahydrophenanthrene-1,3(2H,4H)-dione] | 3.00 to 4.00 | 
3 | O=C1CC([C@H]2O[C@@H](n3cnc4c(N5CCOCC5)ncnc43)[C@H](O)[C@@H]2O)CC(=O)C1=CNCCN1CCN(CCO)CC1 (stereo partly drawn) [Compound 114, 5-((2R, 3S, 4R, 5R)-3,4-dihydroxy-5-(6-morpholino-9H-purin-9-yl)tetrahydrofuran-2-yl)-2-(((2-(4-(2-hydroxyethyl)piperazin-1-yl)ethyl)amino)methylene)cyclohexane-1,3-dione] | 3.00 to 4.00 | 
4 | O=C1CC(Cc2ccccc2)C(=O)/C1=C/NCCN1CCN(CCO)CC1 (centres unmarked) [Compound 115, 4-benzyl-2-(((2-(4-(2-hydroxyethyl)piperazin-1-yl)ethyl)amino)-methylene)cyclopentane-1,3-dione] | 4.82 to 5.52 | 
5 | CC1C(=O)C(=CNCCN2CCN(CCO)CC2)C(=O)CC1c1ccccc1 (centres unmarked) [Compound 116, 2-(((2-(4-(2-hydroxyethyl)piperazin-1-yl)ethyl)amino)methylene)-4-methyl-5-phenylcyclohexane-1,3-dione] | > 5.52 | 
6 | CN(C)CCNC=C1C(=O)CC(c2ccccc2)CC1=O (centres unmarked) [Compound 119, 2-(((2-(dimethylamino)ethyl)amino)methylene)-5-phenylcyclo-hexane-1,3-dione] | > 5.52 | 
7 | CCN(CC)CCNC=C1C(=O)CC(c2ccccc2)CC1=O (centres unmarked) [Compound 120, 2-(((2-(diethylamino)ethyl)amino)methylene)-5-phenylcyclo-hexane-1,3-dione] | > 5.52 | 
8 | C[C@H](NC=C1C(=O)CC(c2ccccc2)CC1=O)C(=O)O (stereo partly drawn) [Compound 121, ((2,6-dioxo-4-phenylcyclo-hexylidene)methyl)-L-alanine] | 4.00 to 4.82 | 
9 | C[C@H](NC=C1C(=O)CC(c2ccccc2)CC1=O)C(=O)OCc1ccccc1 (stereo partly drawn) [Compound 122, benzyl ((2,6-dioxo-4-phenylcyclo-hexylidene)methyl)-L-alaninate] | 3.00 to 4.00 | 
10 | O=C1CC(c2ccccc2)CC(=O)C1=CN[C@@H](Cc1ccccc1)C(=O)O (some centres unmarked) [Compound 123, ((2,6-dioxo-4-phenylcyclo-hexylidene)methyl) phenylalanine] | 3.00 to 4.00 | 
11 | CCOC(=O)[C@H](Cc1ccccc1)NC=C1C(=O)CC(c2ccccc2)CC1=O (some centres unmarked) [Compound 124, (l)-ethyl ((2,6-dioxo-4-phenylcyclo-hexylidene)methyl) phenylalaninate] | 3.00 to 4.00 | 
12 | O=C1CC(c2ccccc2)CC(=O)C1=CN[C@@H](Cc1ccccc1)C(=O)OCc1ccccc1 (stereo partly drawn) [Compound 125, benzyl ((2,6-dioxo-4-phenylcyclo-hexylidene)methyl)-L-phenylalaninate] | 3.00 to 4.00 | 
13 | O=C1CC(c2ccccc2)CC(=O)C1=CN[C@@H](Cc1c[nH]cn1)C(=O)O (stereo partly drawn) [Compound 126, ((2,6-dioxo-4-phenylcyclo-hexylidene)methyl)-L-histidine] | 4.00 to 4.82 | 
14 | COC(=O)C(CCSC)NC=C1C(=O)CC(c2ccccc2)CC1=O (centres unmarked) [Compound 127, methyl ((2,6-dioxo-4-phenylcyclo-hexylidene)methyl) methioninate] | 4.00 to 4.82 | 
15 | COCCNC=C1C(=O)CC(c2ccccc2)CC1=O (centres unmarked) [Compound 128, 2-(((2-methoxyethyl)amino)methylene)-5-phenylcyclohexane-1,3-dione] | 3.00 to 4.00 | 
16 | COC(=O)CNC=C1C(=O)CC(c2ccccc2)CC1=O (centres unmarked) [Compound 129, methyl ((2,6-dioxo-4-phenylcyclo-hexylidene)methyl)glycinate] | 4.00 to 4.82 | 
17 | O=C(O)CCCNC=C1C(=O)CC(c2ccccc2)CC1=O (centres unmarked) [Compound 131, 4-(((2,6-dioxo-4-phenylcyclo-hexylidene)methyl)amino) butanoic acid] | 4.00 to 4.82 | 
18 | O=C1CC(c2ccccc2)CC(=O)C1=CNCCCCO (centres unmarked) [Compound 132, 2-(((4-hydroxybutyl)amino)methylene)-5-phenylcyclohexane-1,3-dione] | 3.00 to 4.00 | 
19 | O=C1CC(c2ccccc2)CC(=O)C1=CNCCCCl (centres unmarked) [Compound 133, 2-(((3-chloropropyl)amino)methylene)-5-phenylcyclohexane-1,3-dione] | 3.00 to 4.00 | 
20 | O=C1CC(c2ccccc2)CC(=O)C1=CNCCOCCO (centres unmarked) [Compound 134, 2-(((2-(2-hydroxyethoxy)ethyl)amino)methylene)-5-phenylcyclohexane-1,3-dione] | 3.00 to 4.00 | 
21 | O=C1CC(c2ccccc2)CC(=O)C1=CNCCc1c[nH]c2ccccc12 (centres unmarked) [Compound 135, 2-(((2-(1H-indol-3-yl)ethyl)amino)methylene)-5-phenylcyclo-hexane-1,3-dione] | 3.00 to 4.00 | 
22 | O=C1CC(c2ccccc2)CC(=O)C1=CNC1CCC(O)CC1 (centres unmarked) [Compound 136, 2-(((4-hydroxycyclohexyl)amino)methylene)-5-phenylcyclohexane-1,3-dione] | 3.00 to 4.00 | 

Row | Structure (SMILES) | pIC50 [1] | pIC50
23 | O=C1CC(c2ccccc2)CC(=O)C1=CNC1CCSC1=O (centres unmarked) [Compound 137, 2-(((2-oxotetrahydro-thiophen-3-yl)amino)methylene)-5-phenylcyclohexane-1,3-dione] |  | 4.82 to 5.52
24 | O=C1CC(c2ccccc2)CC(=O)C1=CNC1CCNCC1 (centres unmarked) [Compound 140, 5-phenyl-2-((piperidin-4-ylamino)methylene) cyclohexane-1,3-dione hydrochloride] | 4.00 to 4.82 | 
25 | O=C1CC(c2ccccc2)CC(=O)C1=CNC1CCCNC1 (centres unmarked) [Compound 141, 5-phenyl-2-((piperidin-3-ylamino)methylene) cyclohexane-1,3-dione hydrochloride] | 4.82 to 5.52 | 
26 | CN1CCC(NC=C2C(=O)CC(c3ccccc3)CC2=O)CC1 (centres unmarked) [Compound 142, 2-(((1-methylpiperidin-4-yl)amino)methylene)-5-phenylcyclohexane-1,3-dione] | 4.00 to 4.82 | 
27 | C=CCNC=C1C(=O)CC(c2ccccc2)CC1=O (centres unmarked) [Compound 143, 2-((allylamino)methylene)-5-phenylcyclo-hexane-1,3-dione] | 4.00 to 4.82 | 
28 | COc1ccc(CNC=C2C(=O)CC(c3ccccc3)CC2=O)cc1 (centres unmarked) [Compound 145, 2-(((4-methoxybenzyl)amino)methylene)-5-phenylcyclo-hexane-1,3-dione] | 3.00 to 4.00 | 
29 | COc1ccc(NC=C2C(=O)CC(c3ccccc3)CC2=O)cn1 (centres unmarked) [Compound 147, 2-(((6-methoxypyridin-3-yl)amino)methylene)-5-phenylcyclo-hexane-1,3-dione] | 4.00 to 4.82 | 
30 | O=C1CC(c2ccccc2)CC(=O)C1=CNc1nc(C(=O)O)cs1 (centres unmarked) [Compound 148, 2-(((2,6-dioxo-4-phenylcyclo-hexylidene)methyl)amino) thiazole-4-carboxylic acid] | > 5.52 | 
31 | O=C1CC(c2ccccc2)CC(=O)C1=CNc1ncc([N+](=O)[O-])s1 (centres unmarked) [Compound 150, 2-(((5-nitrothiazol-2-yl)amino)methylene)-5-phenylcyclohexane-1,3-dione] | > 5.52 | 
32 | O=C1Oc2ccccc2C(=O)C1=CNCCN1CCN(CCO)CC1 [Compound 155, 3-(((2-(4-(2-hydroxyethyl)piperazin-1-yl)ethyl)amino)methylene) chromanone-2,4-dione] | 4.00 to 4.82 | 
33 | O=C1Oc2ccc(-c3ccccc3)cc2C(=O)C1=CNCCN1CCN(CCO)CC1 [Compound 156, 3-(((2-(4-(2-hydroxyethyl)piperazin-1-yl)ethyl)amino)methylene)-6-phenylchromane-2,4-dione] | 4.82 to 5.52 | 
34 | CC(O)C(NC=C1C(=O)CC(c2ccccc2)CC1=O)C(=O)O (centres unmarked) [Compound 158, 2-(((2,6-dioxo-4-phenylcyclo-hexylidene)methyl)amino)-3-hydroxybutanoic acid] | 3.00 to 4.00 | 
35 | CC(NC=C1C(=O)CC(c2ccccc2)CC1=O)c1ccccn1 (centres unmarked) [Compound 160, 5-phenyl-2-(((1-(pyridin-2-yl)ethyl)amino)methylene) cyclohexane-1,3-dione] | 4.00 to 4.82 | 
36 | O=C1CC(c2ccccc2)CC(=O)C1=CNCC1CCNCC1 (centres unmarked) [Compound 161, 5-phenyl-2-(((piperidin-4-ylmethyl)amino)methylene) cyclohexane-1,3-dione hydrochloride] | 3.00 to 4.00 | 
37 | CCOC(=O)[C@H](C)NC=C1C(=O)CC(c2ccccc2)CC1=O (stereo partly drawn) [Compound 162, ethyl ((2,6-dioxo-4-phenylcyclo-hexylidene)methyl)-L-alaninate] | 4.00 to 4.82 | 
38 | O=C1CC(c2ccccc2)CC(=O)C1=CNC[C@@H](O)[C@H](O)[C@@H](O)[C@@H](O)CO (stereo partly drawn) [Compound 163, 2-((((2R,3S,4S,5S)-2,3,4,5,6-pentahydroxyhexyl)amino)methylene)-5-phenylcyclohexane-1,3-dione] | 3.00 to 4.00 | 
39 | CNCCNC=C1C(=O)CC(c2ccccc2)CC1=O (centres unmarked) [Compound 164, 2-(((2-(methylamino)ethyl)amino)methylene)-5-phenylcyclohexane-1,3-dione hydrochloride] | 4.82 to 5.52 | 
40 | CCOC(=O)C(CS)NC=C1C(=O)CC(c2ccccc2)CC1=O (centres unmarked) [Compound 169, ethyl ((2,6-dioxo-4-phenylcyclo-hexylidene)methyl) cysteinate] | 4.82 to 5.52 | 
41 | CN(C)CCCCNC=C1C(=O)CC(c2ccccc2)CC1=O (centres unmarked) [Compound 170, 2-(((4-(dimethylamino)butyl)amino)methylene)-5-phenylcyclohexane-1,3-dione] | 4.82 to 5.52 | 
42 | CCN1CCC[C@H]1CNC=C1C(=O)CC(c2ccccc2)CC1=O (stereo partly drawn) [Compound 171, 2-(((((S)-1-ethylpyrrolidin-2-yl)methyl)amino)methylene)-5-phenylcyclohexane-1,3-dione] | 4.82 to 5.52 | 
43 | NC1CC(NC=C2C(=O)CC(c3ccccc3)CC2=O)C1 (centres unmarked) [Compound 173, 2-(((3-aminocyclobutyl)amino)methylene)-5-phenylcyclohexane-1,3-dione hydrochloride] | 4.00 to 4.82 | 
44 | NCCNC=C1C(=O)CC(c2ccccc2)CC1=O (centres unmarked) [Compound 175, 2-(((2-aminoethyl)amino)methylene)-5-phenylcyclo-hexane-1,3-dione hydrochloride] | 4.82 to 5.52 | 
